Results as given in patent publication US7041625B2, “Method to inhibit ethylene responses in plants” (Rohm and Haas Company, priority 2003, dated 2006).

What was measured:
[1] = system: ethylene-induced epinasty in tomato plants; assay: Tomato epinasty test, volatile gas treatment; format: in vivo, Patio variety tomato seedlings; settings: ethylene 10 ppm v/v injected four hours later, scored visually sixteen hours later, 10 = complete protection, 0 = no protection; for Gas @ 10 ppm: degree of protection against ethylene-induced epinasty, rating on a scale of 0 to 10: compound as volatile gas at 10 ppm v/v
Description: (§1) Objective: The test procedure is designed to determine the ability of an experimental compound to block the epinastic growth response induced by ethylene in tomato plants when the experimental compound is administered either as a volatile gas or as a component of a spray solution.
(§2) Treatment chambers are of an appropriate size for the test plants and are airtight. Each is fitted with a reusable septum to be used for injection of ethylene. Test plants are Patio variety tomato seedlings planted two plants per three inch square plastic pot.
Volatile gas treatment entails placing two pots of Patio var. tomatoes into a polystyrene 4.8 L volume treatment chamber along with one-half (upper or lower section) of a 50×9 mm plastic Petri dish containing a Gelman filter pad. The appropriate amount of experimental compound, dissolved in 1.0 ml acetone, is pipetted onto the filter pad and the chamber immediately sealed. Four hours later ethylene gas equal to 10 ppm v/v final concentration is injected into the sealed chamber. Sixteen hours later the chambers are opened in an exhaust hood, allowed to air and the plants scored visually for the degree of protection against ethylene-induced epinasty conferred by the experimental compound when compared to ethylene treated and untreated controls on a scale of 0 to 10. A rating of 10 means complete protection. A rating of 0 means no protection from the effects of ethylene. Gas treatment concentrations are volume/volume.

[2] = system: ethylene-induced epinasty in tomato plants; assay: Tomato epinasty test, spray application treatment; format: in vivo, Patio variety tomato seedlings; settings: spray at 10 ppm in 10% acetone/90% water with 0.05% Silwett L-77; air-dried four hours; ethylene 10 ppm v/v; scored visually sixteen hours later; 10 = complete protection, 0 = no protection
Description: as §1, §2
Spray application treatment entails using a DeVilbiss atomizer to completely cover all foliage and stems of two pots of Patio var. tomato plants with the appropriate amount of experimental compound dissolved in 10% acetone/90% water with 0.05% Silwett L-77 surfactant. Plants are air-dried in a drying hood for four hours then transferred to a 4.8 L polystyrene chamber which is sealed.
Ethylene gas equal to 10 ppm v/v final concentration is injected into the sealed chamber. Sixteen hours later the chambers are opened in an exhaust hood, allowed to air and the plants scored visually for the degree of protection against ethylene-induced epinasty conferred by the experimental compound when compared to ethylene treated and untreated controls on a scale of 0 to 10. A rating of 10 means complete protection. […]

Structure (SMILES) | Gas @ 10 ppm: degree of protection against ethylene-induced epinasty, rating on a scale of 0 to 10 [1] | Spray @ 10 ppm: degree of protection against ethylene-induced epinasty, rating on a scale of 0 to 10 [2] | Gas @ 1000 ppm: degree of protection against ethylene-induced epinasty, rating on a scale of 0 to 10 ([1]; compound as volatile gas at 1000 ppm v/v)
C1=C2CCCCCC12 (centres unmarked) [Compound 1, Bicyclo[5.1.0]oct-1(8)-ene] | 8 | 0 | –
CCCCCCCCC1=CC12OCC(C)(C)CO2 [Compound 2, 6.6-Dimethyl-1-octyl-4.8-dioxa-spiro[2.5]oct-1-ene] | 0 | 0 | 4
